Patent publication US8466202B2, “Anthracenedione compounds” (Sunten Phytotech Co., Ltd., priority 2006, dated 2013)
Several values for one entry are separate records, joined by “and”; a condition that tells them apart may be missing. Equal entries are not always repeated.

Columns and labels:
healthy male S.D. rats = assay: Feces production in rats over the 10-day period (Example 3); assay type: in vivo, rat; settings: for increase of the feces amount (wet weight): vs control of the same group; for Pellet count / Water content / Wet Weight: Group III, Physcion 4 mg/kg, CP 8 mg/kg
Method: During this period, the body weights of the rats were weighed each day and recorded. Feces of each rat were studied three times during the period for any unusual observations. Specifically, the amounts of feces were weighed on Days 11, 15, 18, and 21. During observation, each rat was placed in a metabolic cage. Feces were collected every twenty-four hours. The number of collected feces pellets was counted, and the pellets' shapes and colors were evaluated. After weighing the moist feces, they were dried in an oven at 100° C. for twenty-four hours. The water content from the feces was calculated according to the following formula: Water content percentage=[(wet weight−dry weight)/wet weight]×100%. (I) The results are summarized in Table 2 below: The aforementioned STD05 and compounds were studied for the laxative activity. Healthy male S.D. rats (BioLASCO Taiwan Co. Ltd.) were divided into three groups (i.e., Groups 1-3) in this study. In Group I, 6 rats, as negative control, were given no treatment; 6 rats, as positive control, were given 3.35 mg/kg/day Sennosides (Through®, Chung Mei Pharmaceutical Co., Ltd; Active ingredient: Sennosides 20 mg, as sennoside A+B 12 mg, Lot. 012F 006); 6 rats were treated STD05 (8 mg/kg/day); 6 rats were treated with an extract fraction containing aloe-emodin, rhein, and emodin (“ARE”, 8 mg/kg/day); 6 rats were treated with Aloe-emodin (4 mg/kg/day); and 6 rats were treated with Rhein (4 mg/kg/day). In Group II, 6 rats, as negative control, were given no treatment; 6 rats, as positive control, were given 3.35 mg/kg/day Sennosides; 6 rats were treated STD05 (24 mg/kg/day); 6 rats were treated with an extract fraction containing ARE (24 mg/kg/day); 6 rats were treated with Chrysophanol (4 mg/kg/day); and 6 rats were treated with Emodin (4 mg/kg/day). In Group III, 6 rats, as negative control, were given no treatment; 6 rats were treated with Physcoin (4 mg/kg/day); and 6 rats were treated with a mixture of chrysophanol and physcion (8 mg/kg/day, “CP”). The experiments were carried out under controlled temperature, humidity, and lighting. Each rat was fed standard rat food and water ad libitum in housing that provided a 12-hour light/dark cycle. For statistical comparison, all of the rats were divided into six sets according to the body weights. The first part of the experiment studied the effect of the test substances on feces production. During the 10-day period, the body weights of the rats were weighed each day and recorded. The rat's feces was also studied three times in the manner described above during the 10-day period for any unusual observations. During the 10-day period, any rat that appeared dying was euthanized, dissected, and examined for any illness or injury. Any complications or illness were analyzed by H&E stains to determine the cause of death and to allow for dosage reconsiderations for future experiments. Summarized in Table 4 below are the effects of the compounds, mixtures, or extracts on the rat body weights. During the period, feces produced by the rats were studied days 1, 5, and 10 in the same manner described above. […] In the 10-day period, the rats administered with STD05 produced more feces (wet weight) that the rats in the control group by about 32%. In addition, the pellet counts for the rats administered with STD05 were greater than those for the control rats by about 20%. Furthermore, STD05 increased the water content in feces by about 18%. The same experiments were conducted on rats administered with physcion, aloe-emodin, chrysophanol, rhein, emodin, CP, and ARE.

[1] = Side effects compared with Rheum palmatum Linne herb extracts (statement, no method given); settings: general statement
[2] = Body weight of rats over the 10-day period (Example 3); assay type: in vivo, rat; set-up: Body weight Difference: unit not given here; settings: Group III, Physcion 4 mg/kg, CP 8 mg/kg
Method: The aforementioned STD05 and compounds were studied for the laxative activity. Healthy male S.D. rats (BioLASCO Taiwan Co. Ltd.) were divided into three groups (i.e., Groups 1-3) in this study. In Group I, 6 rats, as negative control, were given no treatment; 6 rats, as positive control, were given 3.35 mg/kg/day Sennosides (Through®, Chung Mei Pharmaceutical Co., Ltd; Active ingredient: Sennosides 20 mg, as sennoside A+B 12 mg, Lot. 012F 006); 6 rats were treated STD05 (8 mg/kg/day); 6 rats were treated with an extract fraction containing aloe-emodin, rhein, and emodin (“ARE”, 8 mg/kg/day); 6 rats were treated with Aloe-emodin (4 mg/kg/day); and 6 rats were treated with Rhein (4 mg/kg/day). In Group II, 6 rats, as negative control, were given no treatment; 6 rats, as positive control, were given 3.35 mg/kg/day Sennosides; 6 rats were treated STD05 (24 mg/kg/day); 6 rats were treated with an extract fraction containing ARE (24 mg/kg/day); 6 rats were treated with Chrysophanol (4 mg/kg/day); and 6 rats were treated with Emodin (4 mg/kg/day). In Group III, 6 rats, as negative control, were given no treatment; 6 rats were treated with Physcoin (4 mg/kg/day); and 6 rats were treated with a mixture of chrysophanol and physcion (8 mg/kg/day, “CP”). The experiments were carried out under controlled temperature, humidity, and lighting. Each rat was fed standard rat food and water ad libitum in housing that provided a 12-hour light/dark cycle. For statistical comparison, all of the rats were divided into six sets according to the body weights. The first part of the experiment studied the effect of the test substances on feces production. During the 10-day period, the body weights of the rats were weighed each day and recorded. The rat's feces was also studied three times in the manner described above during the 10-day period for any unusual observations. During the 10-day period, any rat that appeared dying was euthanized, dissected, and examined for any illness or injury. Any complications or illness were analyzed by H&E stains to determine the cause of death and to allow for dosage reconsiderations for future experiments. Summarized in Table 4 below are the effects of the compounds, mixtures, or extracts on the rat body weights.

[3] = Enteric absorption rate (statement, no method given); settings: general statement

COc1cc(O)c2c(c1)C(=O)c1cc(C)cc(O)c1C2=O [Physcion, physcion]
increase of the feces amount (wet weight) (healthy male S.D. rats; Day 1): 93% | increase of the feces amount (wet weight) (healthy male S.D. rats; Day 5): 57% | increase of the feces amount (wet weight) (healthy male S.D. rats; Day 10): 32% | Pellet count (healthy male S.D. rats; Day 1): 134 | Water content (healthy male S.D. rats; Day 1): 55.73% | Wet Weight (healthy male S.D. rats; Day 1): 35.38 g | Pellet count (healthy male S.D. rats; Day 5): 128 | Water content (healthy male S.D. rats; Day 5): 53.80% | Wet Weight (healthy male S.D. rats; Day 5): 35.17 g | Pellet count (healthy male S.D. rats; Day 10): 121 | Water content (healthy male S.D. rats; Day 10): 47.66% | Wet Weight (healthy male S.D. rats; Day 10): 29.43 g | increase of the feces amount (wet weight), average (healthy male S.D. rats; average of Days 1, 5 and 10): 61% | side effects often seen in herb extracts (cramping, bloating, gas, and diarrhea) [1]: do not have the side effects | Body weight Difference, Mean ([2]; group mean, Day 10 minus Day 1): 30 g | Body weight End Day 10, Mean ([2]; group mean): 425 g | Body weight Difference ([2]; individual rats, Day 10 minus Day 1): 25 and 30 (3×) and 45 and 20 | Body weight End Day 10 ([2]; individual rats, in g (unit assumed)): 410 and 430 and 450 and 385 and 415 and 460 | enteric absorption rate [3]: very low
